This note sets out measurements from ChEMBL document CHEMBL3862010, “N-Arylsulfonyl-α-amino carboxamides are potent and selective inhibitors of the chemokine receptor CCR10 that show efficacy in the murine DNFB model of contact hypersensitivity” (Bioorg Med Chem Lett, 2016).

Bounds are passed on as bounds.

Data set [1] concerns the target T1, C-C chemokine receptor type 10 (Homo sapiens, UniProt P46092).
T1 sequence (P46092 whole entry): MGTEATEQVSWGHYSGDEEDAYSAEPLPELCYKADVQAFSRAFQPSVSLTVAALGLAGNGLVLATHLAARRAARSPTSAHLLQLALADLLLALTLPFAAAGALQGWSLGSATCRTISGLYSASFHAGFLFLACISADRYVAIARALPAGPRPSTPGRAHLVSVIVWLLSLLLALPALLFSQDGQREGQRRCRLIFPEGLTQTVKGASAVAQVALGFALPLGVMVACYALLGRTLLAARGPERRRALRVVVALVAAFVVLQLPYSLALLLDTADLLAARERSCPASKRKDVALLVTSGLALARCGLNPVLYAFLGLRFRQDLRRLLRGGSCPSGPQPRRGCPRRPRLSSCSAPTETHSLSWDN
In words: Antagonist activity at human CCR10 expressed in CHOK1 cells coexpressing aequorin/Galphaq assessed as inhibition of human CCL27-dependent calcium flux in presence of coelenterazine H by chemiluminescence assay. The class given is functional, cell-based, CHO-K1. On the technique in general: A change in cytosolic calcium serves as a functional read-out for many receptors and channels.

The target in data set [2] is T1, C-C chemokine receptor type 10. In words: Antagonist activity at human CCR10 expressed in CHOK1 cells coexpressing aequorin/Galphaq assessed as inhibition of CCL27-dependent calcium flux in presence of coelenterazine H by FLIPR assay. The data set is classed as functional, cell-based, CHO-K1.
The target of data set [3] is T2, C-C chemokine receptor type 10 (Mus musculus, UniProt Q9JL21).
T2 sequence (Q9JL21 whole entry): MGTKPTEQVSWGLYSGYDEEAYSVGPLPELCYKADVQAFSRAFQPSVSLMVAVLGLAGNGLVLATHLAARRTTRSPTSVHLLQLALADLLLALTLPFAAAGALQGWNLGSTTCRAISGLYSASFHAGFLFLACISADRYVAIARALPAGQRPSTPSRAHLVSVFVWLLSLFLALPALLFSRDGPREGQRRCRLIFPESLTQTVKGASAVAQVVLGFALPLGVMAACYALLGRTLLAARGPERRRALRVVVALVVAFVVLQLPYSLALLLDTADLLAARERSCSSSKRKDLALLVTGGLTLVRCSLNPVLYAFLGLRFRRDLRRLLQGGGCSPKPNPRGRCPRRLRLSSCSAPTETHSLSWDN
In words: Antagonist activity at mouse CCR10 expressed in CHOK1 cells coexpressing aequorin/Galphaq assessed as inhibition of CCL27-dependent calcium flux in presence of coelenterazine H by chemiluminescence assay. The class given is functional, cell-based, CHO-K1.

Data set [4] can be described thus: Plasma concentration in Balb/C mouse at 30 mg/kg, ip bid measured after 1 hr. The data set is classed as ADME, organism-based. Particulars: in vivo, 1 h.
Data set [5] in a line: Protein binding in Balb/C mouse plasma at 100 mg/kg, ip bid. The data set is classed as ADME, organism-based. Particulars: in vivo.
The nature of data set [6]: Plasma concentration in Balb/C mouse at 100 mg/kg, ip bid measured after 1 hr. The class given is ADME, organism-based. The conditions noted are these: in vivo.
Data set [7] has as its target T1, C-C chemokine receptor type 10. In words: Antagonist activity at human CCR10 expressed in CHOK1 cells coexpressing aequorin/Galphaq assessed as inhibition of human CCL28-dependent calcium flux by chemiluminescence assay. The data set is classed as functional, cell-based, CHO-K1.
The target is the same in data set [8]. In words: Antagonist activity at human CCR10 expressed in CHOK1 cells coexpressing aequorin/Galphaq assessed as inhibition of human CCL28-dependent calcium flux by FLIPR assay. The data set is classed as functional, cell-based, CHO-K1.

Take `Cc1ccc(S(=O)(=O)NC(CCn2cccc2C#N)C(=O)N2CCC(C)CC2)c(C)c1N` (configuration not stated): the IC50 in data set [1] (read-out: pIC50 (converted)) is 100 nM.
Take `CC1CCN(C(=O)C(CCn2ccnc2)NS(=O)(=O)c2cc(Cl)c(N)c(Cl)c2)CC1` (configuration not stated): the IC50 in data set [2] is more than 20000 nM.
On to `CC1CCN(C(=O)C(CCn2ccnc2C#N)NS(=O)(=O)c2cc(Cl)c(N)c(Cl)c2)CC1` (configuration not stated), for which the IC50 in data set [1] (read-out: pIC50 (converted)) was 501 nM.
Still for that read-out and setting: for `CC1CCN(C(=O)C(CCn2cccc2C#N)NS(=O)(=O)c2cccc3ccccc23)CC1` (configuration not stated) the value was 50.1 nM.
On to `CC1CCN(C(=O)C(CCn2cccc2C#N)NS(=O)(=O)c2ccc3cc[nH]c3c2)CC1` (configuration not stated), for which the IC50 was 7.94 nM in data set [1] (read-out: pIC50 (converted)) and 1000 nM in data set [3].
For the compound `N#Cc1cccn1CCC(NS(=O)(=O)c1cccc2[nH]ccc12)C(=O)N1CCCCC1` (configuration not stated), in data set [1] (read-out: pIC50 (converted)), the IC50 was 10 nM.
Turning to `CC1CCN(C(=O)C(CCn2cccn2)NS(=O)(=O)c2cc(Cl)c(N)c(Cl)c2)CC1` (configuration not stated), the IC50 in data set [1] (read-out: pIC50 (converted)) is 1580 nM.
On the same count and under the same terms, the value for `N#Cc1cccn1CCC(NS(=O)(=O)c1cc(Cl)c(N)c(Cl)c1)C(=O)N1CCC(C(F)(F)F)CC1` (configuration not stated) was 398 nM; that for `CC1CCN(C(=O)C(CCn2nccc2Cl)NS(=O)(=O)c2cc(Cl)c(N)c(Cl)c2)CC1` (configuration not stated) was 251 nM.
The same measure, in the same setting: the value for `CC1CCCN(C(=O)C(CCn2cccc2C#N)NS(=O)(=O)c2cccc3[nH]ccc23)C1` (configuration not stated) was 63.1 nM; that for `CN(C)C(=O)C(CCn1cccc1C#N)NS(=O)(=O)c1cccc2[nH]ccc12` (configuration not stated) was 3980 nM; that for `CC1CCN(C(=O)C(CCn2nccn2)NS(=O)(=O)c2cc(Cl)c(N)c(Cl)c2)CC1` (configuration not stated) was 3160 nM.
The same measure, in the same setting: the value for `N#Cc1cccn1CCC(NS(=O)(=O)c1cc(Cl)c(N)c(Cl)c1)C(=O)N1CCCCCC1` (configuration not stated) was 251 nM; that for `CC1CCCCN1C(=O)C(CCn1cccc1C#N)NS(=O)(=O)c1cc(Cl)c(N)c(Cl)c1` (configuration not stated) was 794 nM; that for `CC1CCN(C(=O)[C@@H](CCn2ccnc2[N+](=O)[O-])NS(=O)(=O)c2cc(Cl)c(N)c(Cl)c2)CC1` was 501 nM.
Turning to `CC1CCN(C(=O)[C@@H](CCn2cccc2C#N)NS(=O)(=O)c2cc(Cl)c(N)c(Cl)c2)CC1`, in data set [1] (read-out: pIC50 (converted)), the IC50 was 7.94 nM.
On the same count and under the same terms, the value for `N#Cc1cccn1CCC(NS(=O)(=O)c1cccc2[nH]ccc12)C(=O)N1CCCCCC1` (configuration not stated) was 25.1 nM.
The same measure, in the same setting: for `CC1CCN(C(=O)[C@H](CCc2ccccc2)NS(=O)(=O)c2cc(Cl)c(N)c(Cl)c2)CC1` the value was more than 10000 nM; for `N#Cc1cccn1CCC(NS(=O)(=O)c1cccc2[nH]ccc12)C(=O)N1CCC(C(F)(F)F)CC1` (configuration not stated), 10 nM; for `CC1CCN(C(=O)[C@H](CCn2cccc2C#N)NS(=O)(=O)c2cc(Cl)c(N)c(Cl)c2)CC1`, 15800 nM.
Consider `CC1CCN(C(=O)C(CCn2ccnc2Cl)NS(=O)(=O)c2cc(Cl)c(N)c(Cl)c2)CC1` (configuration not stated), for which the IC50 in data set [1] (read-out: pIC50 (converted)) is 501 nM; in data set [3], more than 20000 nM.
`CC1CCN(C(=O)C(CCn2cccc2C#N)NS(=O)(=O)c2cccc3[nH]ccc23)CC1` (stereo in doubt; form 2): the values for the concentration in data set [4] and in data set [6] were 3.2 µM and 18 µM, respectively. The PPB in data set [5] is given as 99%. Moreover, the IC50 was 3160 nM in data set [1] (read-out: pIC50 (converted)) and 15800 nM in data set [3].
As to `CC1CCN(C(=O)C(CCn2ccnn2)NS(=O)(=O)c2cc(Cl)c(N)c(Cl)c2)CC1` (configuration not stated), the IC50 in data set [1] (read-out: pIC50 (converted)) is more than 20000 nM.
As for `CC1CCN(C(=O)C(CCn2cccc2C#N)NS(=O)(=O)c2ccccc2)CC1` (configuration not stated), the IC50 is 1260 nM in data set [1] (read-out: pIC50 (converted)) and more than 20000 nM in data set [3].
In the case of `CC1CCN(C(=O)C(CCn2ccnc2[N+](=O)[O-])NS(=O)(=O)c2cc(Cl)c(N)c(Cl)c2)CC1` (configuration not stated), the IC50 in data set [7] was 794 nM; in data set [2], 251 nM; in data set [1] (read-out: IC50) it was 690 nM; in data set [3], more than 20000 nM; in data set [8], 794 nM.
As to `CC1CCN(C(=O)C(CCn2cccc2C#N)NS(=O)(=O)c2cccc3c2ccn3C)CC1` (configuration not stated), the IC50 in data set [1] (read-out: pIC50 (converted)) is 126 nM; in data set [3], 6310 nM.
For the compound `CC1CCN(C(=O)C(CCn2cccc2C#N)NS(=O)(=O)c2ccc3[nH]ccc3c2)CC1` (configuration not stated), the IC50 in data set [1] (read-out: pIC50 (converted)) is 200 nM.
Still for that read-out and setting: the value for `N#Cc1cccn1CCC(NS(=O)(=O)c1cc(Cl)c(N)c(Cl)c1)C(=O)N1CCCC1` (configuration not stated) was more than 10000 nM.
As for `CC1CCN(C(=O)[C@@H](CCc2ccccc2)NS(=O)(=O)c2cc(Cl)c(N)c(Cl)c2)CC1`, the IC50 is 631 nM in data set [1] (read-out: pIC50 (converted)) and 10000 nM in data set [3].
On the same counts, the results for `CC1CCN(C(=O)C(CCn2cccc2C#N)NS(=O)(=O)c2cccc3cc[nH]c23)CC1` (configuration not stated) are 251 nM and 7940 nM.
Turning to `CC1CCCN(C(=O)C(CCn2cccc2C#N)NS(=O)(=O)c2cc(Cl)c(N)c(Cl)c2)C1` (configuration not stated), the IC50 in data set [1] (read-out: pIC50 (converted)) was 631 nM.
As for `CC1CCN(C(=O)C(CCn2cccc2)NS(=O)(=O)c2cc(Cl)c(N)c(Cl)c2)CC1` (configuration not stated), the IC50 in data set [1] (read-out: pIC50 (converted)) is 1260 nM.
Same read-out and setting: for `CC1CCN(C(=O)C(CCc2ccccc2Cl)NS(=O)(=O)c2cc(Cl)c(N)c(Cl)c2)CC1` (configuration not stated) the value was 126 nM.
Take `CC1CCN(C(=O)C(CCn2cncn2)NS(=O)(=O)c2cc(Cl)c(N)c(Cl)c2)CC1` (configuration not stated): the IC50 in data set [1] (read-out: pIC50 (converted)) is more than 20000 nM.
The same measure, in the same setting: the value for `CC1CCN(C(=O)[C@H](CCn2ccnc2[N+](=O)[O-])NS(=O)(=O)c2cc(Cl)c(N)c(Cl)c2)CC1` was more than 20000 nM; that for `CN(C)C(=O)C(CCn1cccc1C#N)NS(=O)(=O)c1cc(Cl)c(N)c(Cl)c1` (configuration not stated) was more than 10000 nM; that for `N#Cc1cccn1CCC(NS(=O)(=O)c1cc(Cl)c(N)c(Cl)c1)C(=O)N1CCCCC1` (configuration not stated) was 158 nM.
Still for that read-out and setting: the value for `CC1CCN(C(=O)C(CCn2cccc2C#N)NS(=O)(=O)c2c(N)cc(Cl)cc2Cl)CC1` (configuration not stated) was 39.8 nM; that for `N#Cc1cccn1CCC(NS(=O)(=O)c1cccc2[nH]ccc12)C(=O)N1CCC(O)CC1` (configuration not stated) was 126 nM; that for `CC1CCN(C(=O)C(CCn2cccc2C#N)NS(=O)(=O)c2cc(Cl)c(N)cc2Cl)CC1` (configuration not stated) was 63.1 nM.
As for `CC1CCCCN1C(=O)C(CCn1cccc1C#N)NS(=O)(=O)c1cccc2[nH]ccc12` (configuration not stated), the IC50 in data set [1] (read-out: pIC50 (converted)) was 20 nM.
In the case of `CC1CCN(C(=O)C(CCn2nccc2C#N)NS(=O)(=O)c2cc(Cl)c(N)c(Cl)c2)CC1` (configuration not stated), the IC50 is 63.1 nM in data set [1] (read-out: pIC50 (converted)) and 3160 nM in data set [3].
